This is an account of results in US20170157161A1, “Anti-Cancer Therapies” (Threshold Pharmaceuticals, Inc., priority 2015, published 2017).

In data set [1] the test system is pancreatic cancer cell lines. The following applies: in vitro; cited from earlier work.
The subject of data set [2] is advanced pancreatic cancer. The following applies: patients with advanced pancreatic cancer; cited from earlier work.
Data set [3] concerns HS766-T human pancreatic cancer cells. Kind of data set: HS766-T human pancreatic tumor model in NMRI nu/nu mice. It counts as in vivo. The method, then:
(§1) A combination of glufosfamide and gemcitabine was administered daily for 7 days to female NMRI nu/nu mice that were carrying tumors derived from HS766-T or As-PC-1 human pancreatic cancer cells. Mice were administered doses of vehicle control (0.9% sodium chloride solution, i.v.), gemcitabine (i.p.), glufosfamide (i.v.) or gemcitabine/glufosfamide combinations once daily for 7 consecutive days. A dose of 1.25 mg/kg was used as the standard dose for gemcitabine throughout the study.

In data set [4] the test system is As-PC-1 human pancreatic cancer cells. Kind of data set: As-PC-1 human pancreatic tumor model in NMRI nu/nu mice. It counts as in vivo. The following applies: glufosfamide i.v. and gemcitabine 1.25 mg/kg i.p., alone or in combination, once daily for 7 days. As for the experimental part:
as §1

Data set [5] relates to MiPaca2 human pancreatic cancer cells. Nature of the data set: MiPaca2 human pancreatic tumor model in nude mice. It counts as in vivo. As for the experimental part: A combination of glufosfamide and gemcitabine was administered to nude mice that were carrying tumors derived from type MiPaca2 human pancreatic cancer cells. Mice were administered doses of vehicle control, gemcitabine, glufosfamide, or gemcitabine/glufosfamide combinations as tabulated in Table 1 below (10 mice/group). Glufosfamide was administered i.v., daily for 14 days (Groups 1-4 and 7-12). Gemcitabine was administered at 300 mg/kg, i.p., once a week for three weeks (Groups 6 and 10-12). Gemcitabine was administered at 150 mg/kg, i.p., twice a week for three weeks (Groups 5 and 7-9).

Turning to `Nc1nc2[nH]cc(CCc3ccc(C(=O)N[C@@H](CCC(=O)O)C(=O)O)cc3)c2c(=O)[nH]1` [Pemetrexed], in data set [1], the “activity against pancreatic cancer cell lines” value is “active against pancreatic cancer cell lines in vitro”. The activity in patients result in data set [2] is recorded as “has shown activity in patients with advanced pancreatic cancer”.
In the case of `Nc1ccn([C@@H]2O[C@H](CO)[C@@H](O)C2(F)F)c(=O)n1` [gemcitabine, 2′-deoxy-2′,2′-difluoro-cytidine], in data set [3] (gemcitabine alone 1.25 mg/kg i.p. once daily for 7 days), the “inhibitory effect on tumor progression” value is on record as “only a marginal inhibitory effect on tumor progression”. In addition, the “inhibitory effect on tumor growth” value in data set [4] is on record as “no apparent inhibitory effect on tumor growth”. The “deaths of the animals” value in data set [5] (Group 5: gemcitabine 150 mg/kg i.p. twice a week for three weeks) was “rapid deaths of the animals”. In data set [5] (Group 6: gemcitabine 300 mg/kg i.p. once a week for three weeks), the “reduction in tumor size” value is given as “Approximately 50%”.
As for `O=P(NCCCl)(NCCCl)O[C@@H]1O[C@H](CO)[C@@H](O)[C@H](O)[C@H]1O` [glufosfamide, β-D-glucosyl-ifosfamide mustard], in data set [3] (10 mg/kg glufosfamide i.v. once daily for 7 days, compared with gemcitabine alone or vehicle control), the “onset of tumor growth” value is reported as “dramatic delay in the onset of tumor growth”. Also, the “inhibitory effect on tumor growth” value in data set [4] is “no apparent inhibitory effect on tumor growth”. Moreover, the “reduction in tumor size” value in data set [5] (Group 3: glufosfamide 30 mg/kg i.v. daily for 14 days) and in data set [5] (Group 4: glufosfamide 100 mg/kg i.v. daily for 14 days) was “modest reduction in tumor size” in each case.
